Molecules are shown by their SMILES.

This experiment has as its system SK-N-SH human neuroblastoma cells. Put plainly: Serum Deprivation/JC-1 Mitochondrial Membrane Potential (MMP) Assay. It is filed as cell-based. To be noted: for Emax: percent maximal intensity in JC-1 ratio normalized to peak value for 10 μM dimebolin, read-out: JC-1 max %; for EC50: serum deprivation ~18 hours, JC-1 ratio normalized to peak value for 10 μM dimebolin, single curve fit to mean of n=2-3. Here is the method: SK-N-SH human neuroblastoma cells obtained from American Type Culture Collection (Rockville, Md.) were maintained in the log phase of growth in Minimal Essential Media (MEM), 10% heat inactivated fetal calf serum and 100 units/mL antibiotic-antimycotic (AA). Cells were cultured and maintained in a humidified incubator at 37° C. under 5% CO2 and 95% air. Cells were trypsinized (0.25%) and subcultured every 3 days and used from 15-18 passages. All cell culture supplies were obtained from Invitrogen (Carlsbad, Calif.).
SK-N-SH cells were plated 2-3 days in advance at a concentration of 50,000 cells/well onto collagen coated black-walled 96 well plates (Becton-Dickinson, Bedford, Mass.) in a total volume of 200 μL. On day of experimental treatment, the media containing serum was aspirated from each well and rinsed once with MEM/1% AA without serum. The cells then were incubated overnight in 100 μL of MEM/1% AA (no serum) with and without dimebolin or novel chemical entities overnight for ˜18 hours. The following day, JC-1 dye (5,5′,6,6′-tetrachloro-1,1′,3,3′-tetraethylbenzimidazolcarbocyanide) was diluted 1:10 into MEM media according to the JC-1 Mitochondrial Membrane Potential Assay Kit: (Cayman Chemical Company, Ann Arbor, Mich.) and then 10 μL of the JC-1 dye solution was added to each well. The plates were centrifuged for 5 minutes at 400×g at room temperature followed by 35 minute incubation at 37° C. The plates were washed twice with 200 μL of provided Assay Buffer followed an addition of 100 μL of Assay Buffer to each well. The plates were read with an excitation and emission of 560 nm and 595 nM for red fluorescence and with an excitation and emission of […] and 535 nM for green fluorescence to determine the final JC-1 value taking the red to green fluorescence ratio. This assay is based on change in mitochondrial membrane potential (MMP) using this lipophilic cationic dye, JC-1, by monitoring the changes in the ratio of red to green fluorescence as the MMP depolarizes. This change in MMP reflects the health of the cell with healthy, viable cells have a high JC-1 ratio and high MMP whereas apoptotic, unhealthy cells have a low JC-1 ratio or low MMP.
For the ability of compounds to reverse the stress due to serum deprivation and increase the JC-1 ratio, the percent maximal intensity in JC-1 ratio was normalized to that induced by the peak value for 10 μM dimebolin and plotted against the compound concentration to calculate EC50 values and to control for plate-to-plate variability. Concentration-response data were analyzed using GraphPad Prism (San Diego, Calif.); the EC50 values were derived from a single curve fit to the mean data of n=2-3, in duplicates.
All compounds were dissolved in dimethyl sulfoxide at 10 mM stock solutions and tested at a concentration that the dimethyl sulfoxide levels never exceeded 1%.

Turning to `Cc1ccc(/C=C/c2cccc3c4c([nH]c23)C[C@H]2CC[C@@H]4N2)cn1` (single isomer, unassigned) [Example 25], the EC50 is 5.99 µM. Also, under “Homo sapiens, SK-N-SH, 18 h”, the Emax is 173% and the EC50 was found to be 6.25 µM.
Regarding `CN1[C@@H]2CC[C@H]1c1c([nH]c3c(OCc4ccccc4)cccc13)C2` (stereo in doubt) [Example 5, (7R*,10S*)-4-(benzyloxy)-11-methyl-5,6,7,8,9,10-hexahydro-7,10-epiminocyclohepta[b]indole], where the note is “Homo sapiens, SK-N-SH, 18 h”, the Emax was found to be 24% and the EC50 was > 30 µM.
With `CN1[C@H]2CC[C@@H]1c1c([nH]c3c(OCc4ccccc4)cccc13)C2` (stereo in doubt) [Example 6, (7S*,10R*)-4-(benzyloxy)-11-methyl-5,6,7,8,9,10-hexahydro-7,10-epiminocyclohepta[b]indole], where the note is “Homo sapiens, SK-N-SH, 18 h”, the Emax is 55% and the EC50 stood at 4.59 µM.
In the case of `CN1[C@@H]2CCC[C@H]1c1c([nH]c3c(OCc4ccccc4)cccc13)C2` (stereo in doubt) [Example 7, (−)-(7R*,11S*)-4-(benzyloxy)-12-methyl-6,7,8,9,10,11-hexahydro-5H-7,11-epiminocycloocta[b]indole], for the setting “Homo sapiens, SK-N-SH, 18 h”, the Emax was found to be 120% and the EC50 amounted to 5.41 µM.
On to `CN1[C@H]2CCC[C@@H]1c1c([nH]c3c(OCc4ccccc4)cccc13)C2` (stereo in doubt) [Example 8, (+)-(7S*,11R*)-4-(benzyloxy)-12-methyl-6,7,8,9,10,11-hexahydro-5H-7,11-epiminocycloocta[b]indole], for which, under “Homo sapiens, SK-N-SH, 18 h”, the Emax is 107% and the EC50 turned out to be 8.52 µM.
For `c1ccc(COc2cccc3c4c([nH]c23)C[C@@H]2CCC[C@H]4N2)cc1` (stereo in doubt) [Example 10, (7S*,11R*)-4-(benzyloxy)-6,7,8,9,10,11-hexahydro-5H-7,11-epiminocycloocta[b]indole], in that order: 128% and 4.81 µM.
Take `Cc1ccc(/C=C/c2cccc3c4c([nH]c23)C[C@@H]2CC[C@H]4N2C)cn1` (stereo in doubt) [Example 14, (+)-(7S*,10R*)-11-methyl-4-[(E)-2-(6-methylpyridin-3-yl)vinyl]-5,6,7,8,9,10-hexahydro-7,10-epiminocyclohepta[b]indole]: for the setting “Homo sapiens, SK-N-SH, 18 h”, the Emax amounted to 162% and the EC50 was 4.34 µM.
As to `Cc1ccc(/C=C/c2cccc3c4c([nH]c23)C[C@H]2CC[C@@H]4N2C)cn1` (stereo in doubt) [Example 15, (−)-(7R*,10S*)-11-methyl-4-[(E)-2-(6-methylpyridin-3-yl)vinyl]-5,6,7,8,9,10-hexahydro-7,10-epiminocyclohepta[b]indole], under “Homo sapiens, SK-N-SH, 18 h”, the Emax was determined as 160% and the EC50 is 3.04 µM.
`Cc1ccc(C#Cc2cccc3c4c([nH]c23)C[C@@H]2CC[C@H]4N2C)cn1` (stereo in doubt) [Example 16, (+)-(7S*,10R*)-11-methyl-4-[(6-methylpyridin-3-yl)ethynyl]-5,6,7,8,9,10-hexahydro-7,10-epiminocyclohepta[b]indole]: under “Homo sapiens, SK-N-SH, 18 h”, the Emax came to 193% and the EC50 was found to be 5.11 µM.
For the compound `Cc1ccc(C#Cc2cccc3c4c([nH]c23)C[C@H]2CC[C@@H]4N2C)cn1` (stereo in doubt) [Example 17, (−)-(7R*,10S*)-11-methyl-4-[(6-methylpyridin-3-yl)ethynyl]-5,6,7,8,9,10-hexahydro-7,10-epiminocyclohepta[b]indole], where the note is “Homo sapiens, SK-N-SH, 18 h”, the Emax was 182% and the EC50 was determined as 3.87 µM.
In the case of `Cc1ccc(CCc2cccc3c4c([nH]c23)CC2CCC4N2C)cn1` (stereo not drawn) [Example 2, 11-methyl-4-[2-(6-methylpyridin-3-yl)ethyl]-5,6,7,8,9,10-hexahydro-7,10-epiminocyclohepta[b]indole], under “Homo sapiens, SK-N-SH, 18 h”, the Emax worked out at 173% and the EC50 came out at 5.25 µM.
`Cc1ccc(C#Cc2cccc3c4c([nH]c23)CC2CCC4N2C)cn1` (stereo not drawn) [Example 3, 11-methyl-4-[(6-methylpyridin-3-yl)ethynyl]-5,6,7,8,9,10-hexahydro-7,10-epiminocyclohepta[b]indole]: where the note is “Homo sapiens, SK-N-SH, 18 h”, the Emax came out at 244% and the EC50 came to 6.18 µM.
As to `Cc1ccc(/C=C/c2ccc3[nH]c4c(c3c2)C2CCC(C4)N2C)cn1` (stereo not drawn) [Example 4, 11-methyl-2-[(E)-2-(6-methylpyridin-3-yl)vinyl]-5,6,7,8,9,10-hexahydro-7,10-epiminocyclohepta[b]indole], under “Homo sapiens, SK-N-SH, 18 h”, the Emax was found to be 239% and the half-maximal effective concentration (EC50) was 3.62 µM.
For `CN1C2CCC1c1c([nH]c3c(-c4ccc(Cl)cc4)cccc13)C2` (stereo not drawn) [Example 11, 4-(4-chlorophenyl)-11-methyl-5,6,7,8,9,10-hexahydro-7,10-epiminocyclohepta[b]indole], in that order: 74% and 8.03 µM.
Take `Cc1ccc(/C=C/c2cc(F)cc3c4c([nH]c23)CC2CCC4N2C)cn1` (stereo not drawn) [Example 12, 2-fluoro-11-methyl-4-[(E)-2-(6-methylpyridin-3-yl)vinyl]-5,6,7,8,9,10-hexahydro-7,10-epiminocyclohepta[b]indole]: under “Homo sapiens, SK-N-SH, 18 h”, the Emax turned out to be 200% and the EC50 worked out at 7.83 µM.
For `Cc1ccc(/C=C/c2cccc3c4c([nH]c23)CC2CCC4N2)cn1` (stereo not drawn) [Example 13, 4-[(E)-2-(6-methylpyridin-3-yl)vinyl]-5,6,7,8,9,10-hexahydro-7,10-epiminocyclohepta[b]indole] the same measures were 164% and 4.62 µM.
`CC(=O)N1C2CCC1c1c([nH]c3c(/C=C/c4ccc(C)nc4)cccc13)C2` (stereo not drawn) [Example 18, 11-acetyl-4-[(E)-2-(6-methylpyridin-3-yl)vinyl]-5,6,7,8,9,10-hexahydro-7,10-epiminocyclohepta[b]indole]: for the setting “Homo sapiens, SK-N-SH, 18 h”, the Emax was 146% and the EC50 was determined as 10.6 µM.
On to `COC(=O)N1C2CCC1c1c([nH]c3c(/C=C/c4ccc(C)nc4)cccc13)C2` (stereo not drawn) [Example 19, methyl 4-[(E)-2-(6-methylpyridin-3-yl)vinyl]-5,6,7,8,9,10-hexahydro-7,10-epiminocyclohepta[b]indole-11-carboxylate], for which, for the setting “Homo sapiens, SK-N-SH, 18 h”, the Emax was determined as 178% and the EC50 came to 5.37 µM.
For `COC(=O)N1C2CCC1c1c([nH]c3c(-c4ccc5ccncc5c4)cccc13)C2` (stereo not drawn) [Example 20, methyl 4-isoquinolin-7-yl-5,6,7,8,9,10-hexahydro-7,10-epiminocyclohepta[b]indole-11-carboxylate], where the note is “Homo sapiens, SK-N-SH, 18 h”, the Emax worked out at 292% and the EC50 was 9.94 µM.
On to `COC(=O)N1C2CCC1c1c([nH]c3c(-c4ccc5ncccc5c4)cccc13)C2` (stereo not drawn) [Example 22, methyl 4-quinolin-6-yl-5,6,7,8,9,10-hexahydro-7,10-epiminocyclohepta[b]indole-11-carboxylate], for which, where the note is “Homo sapiens, SK-N-SH, 18 h”, the Emax worked out at 204% and the EC50 stood at 6.44 µM.
For `CC(=O)N1C2CCC1c1c([nH]c3c(-c4ccc5ncccc5c4)cccc13)C2` (stereo not drawn) [Example 23, 11-acetyl-4-quinolin-6-yl-5,6,7,8,9,10-hexahydro-7,10-epiminocyclohepta[b]indole], in that order: 209% and 6.11 µM.
Consider `Cc1ccc(/C=C/c2cccc3c4c(n(C)c23)CC2CCC4N2)cn1` (stereo not drawn) [Example 24, 5-methyl-4-[(E)-2-(6-methylpyridin-3-yl)vinyl]-5,6,7,8,9,10-hexahydro-7,10-epiminocyclohepta[b]indole], for which, where the note is “Homo sapiens, SK-N-SH, 18 h”, the Emax was found to be 217% and the EC50 amounted to 3.85 µM.
In the case of `Clc1ccc(-c2cccc3c4c([nH]c23)CC2CCC4N2)cn1` (stereo not drawn) [Example 27, 4-(6-chloropyridin-3-yl)-5,6,7,8,9,10-hexahydro-7,10-epiminocyclohepta[b]indole], where the note is “Homo sapiens, SK-N-SH, 18 h”, the Emax was 104% and the concentration giving a half-maximal response (EC50) was found to be 10.2 µM.
For `Clc1ccc(-c2ccc(-c3cccc4c5c([nH]c34)CC3CCC5N3)cn2)cn1` (stereo not drawn) [Example 28, 4-(6′-chloro-2,3′-bipyridin-5-yl)-5,6,7,8,9,10-hexahydro-7,10-epiminocyclohepta[b]indole], where the note is “Homo sapiens, SK-N-SH, 18 h”, the Emax was 118% and the EC50 was 5.5 µM.
As for `CC(=O)N1C2CCC1c1c([nH]c3c(-c4ccc(Cl)nc4)cccc13)C2` (stereo not drawn) [Example 29, 1-[4-(6-chloropyridin-3-yl)-5,6,7,8,9,10-hexahydro-7,10-epiminocyclohepta[b]indol-11-yl]ethanone], under “Homo sapiens, SK-N-SH, 18 h”, the Emax is 114% and the EC50 was 5.31 µM.

For the origin of these results see patent US8778959B2, “AZA-bridged ring-fused indoles and indolines” (AbbVie Inc., priority 2009, dated 2014).
